Results: PubChem BioAssay AID190 (DTP/NCI, 2004)
“And” between values parts separate entries of the source, which are not always exact repeats. Identical values can stand only once. Toxic doses and inconclusive results are not listed.

Test system: AKR/Lw mice, AKR lymphoma ip, median survival T/C
Test: NCI In Vivo Anticancer Drug Screen. Data for tumor model Lymphoma AKR (Transplanted) (intraperitoneal) in AKR/Lw mice
Settings: endpoint: median survival time, higher = longer survival
Protocol: The antitumor activity of compounds was measured in mice bearing transplantable tumors. Survival or tumor size were measured and the results are expressed as the measurement made in the treated group (T) divided by the measurement made in the vehicle treated control group (C). The tumor model used in this assay is Lymphoma AKR (Transplanted) (intraperitoneal) in AKR/Lw mice

Question: O=P1(N(CCCl)CCCl)NCCCO1 (stereo unspecified) was tested. Which T/C (dose: 0.5 mg/kg/injection, schedule: Q01DX015 (ip), vehicle: saline) did it give?
Answer: 117 % of control

Question: And the T/C (dose: 1.0 mg/kg/injection, schedule: Q01DX015 (ip), vehicle: saline)?
Answer: 108 % of control

Question: What about the T/C (dose: 1.5 mg/kg/injection, schedule: Q04DX003 (ip), vehicle: saline) of the same compound?
Answer: 91 % of control

Question: And the T/C (dose: 2.0 mg/kg/injection, schedule: Q01DX015 (ip), vehicle: saline)?
Answer: 108 % of control

Question: And the T/C (dose: 2.0 mg/kg/injection, schedule: Q03HX032 (ip), vehicle: saline)?
Answer: 119 % of control

Question: What about the T/C (dose: 3.0 mg/kg/injection, schedule: Q04DX003 (ip), vehicle: saline) of the same compound?
Answer: 93 % of control

Question: What about the T/C (dose: 3.1 mg/kg/injection, schedule: Q01DX009 (ip), vehicle: saline) of the same compound?
Answer: 100 % of control and 102 % of control

Question: What about the T/C (dose: 4.0 mg/kg/injection, schedule: Q03HX032 (ip), vehicle: saline) of the same compound?
Answer: 117 % of control

Question: What about the T/C (dose: 6.0 mg/kg/injection, schedule: Q01DX009 (ip), vehicle: saline) of the same compound?
Answer: 97 % of control

Question: And the T/C (dose: 6.0 mg/kg/injection, schedule: Q04DX003 (ip), vehicle: saline)?
Answer: 93 % of control

Question: What about the T/C (dose: 6.2 mg/kg/injection, schedule: Q04DX003 (ip), vehicle: saline) of the same compound?
Answer: 97 % of control

Question: What about the T/C (dose: 6.25 mg/kg/injection, schedule: Q07DX005 (ip), vehicle: saline) of the same compound?
Answer: 112 % of control

Question: And the T/C (dose: 7.0 mg/kg/injection, schedule: Q01DX015 (ip), vehicle: saline)?
Answer: 88 % of control

Question: And the T/C (dose: 8.0 mg/kg/injection, schedule: Q03HX032 (ip), vehicle: saline)?
Answer: 112 % of control

Question: What about the T/C (dose: 10.0 mg/kg/injection, schedule: Q01DX009 (ip), vehicle: saline) of the same compound?
Answer: 110 % of control and 118 % of control

Question: And the T/C (dose: 11.0 mg/kg/injection, schedule: Q01DX015 (ip), vehicle: saline)?
Answer: 100 % of control

Question: What about the T/C (dose: 12.0 mg/kg/injection, schedule: Q04DX003 (ip), vehicle: saline) of the same compound?
Answer: 97 % of control and 105 % of control

Question: And the T/C (dose: 12.5 mg/kg/injection, schedule: Q01DX001 (ip), vehicle: saline)?
Answer: 92 % of control and 104 % of control and 116 % of control

Question: And the T/C (dose: 20.0 mg/kg/injection, schedule: Q07DX004 (ip), vehicle: saline)?
Answer: 120 % of control

Question: And the T/C (dose: 24.0 mg/kg/injection, schedule: Q01DX015 (ip), vehicle: saline)?
Answer: 100 % of control and 117 % of control

Question: What about the T/C (dose: 25.0 mg/kg/injection, schedule: Q07DX003 (ip), vehicle: saline) of the same compound?
Answer: 152 % of control

Question: And the T/C (dose: 25.0 mg/kg/injection, schedule: Q10DX002 (ip), vehicle: saline)?
Answer: 152 % of control

Question: What about the T/C (dose: 25.0 mg/kg/injection, schedule: Q10DX004 (ip), vehicle: saline) of the same compound?
Answer: 119 % of control

Question: And the T/C (dose: 25.0 mg/kg/injection, schedule: Q14DX003 (ip), vehicle: saline)?
Answer: 178 % of control

Question: What about the T/C (dose: 25.0 mg/kg/injection, schedule: Q14DX004 (ip), vehicle: saline) of the same compound?
Answer: 103 % of control

Question: What about the T/C (dose: 33.0 mg/kg/injection, schedule: Q09DX002 (ip), vehicle: saline) of the same compound?
Answer: 188 % of control

Question: And the T/C (dose: 37.5 mg/kg/injection, schedule: Q12DX002 (ip), vehicle: saline)?
Answer: 172 % of control

Question: And the T/C (dose: 44.0 mg/kg/injection, schedule: Q07DX004 (ip), vehicle: saline)?
Answer: 227 % of control

Question: What about the T/C (dose: 50.0 mg/kg/injection, schedule: Q09DX002 (ip), vehicle: saline) of the same compound?
Answer: 160 % of control and 234 % of control (2×)

Question: And the T/C (dose: 50.0 mg/kg/injection, schedule: Q10DX002 (ip), vehicle: saline)?
Answer: 186 % of control

Question: What about the T/C (dose: 50.0 mg/kg/injection, schedule: Q12DX002 (ip), vehicle: saline) of the same compound?
Answer: 164 % of control

Question: And the T/C (dose: 50.0 mg/kg/injection, schedule: Q14DX003 (ip), vehicle: saline)?
Answer: 177 % of control

Question: What about the T/C (dose: 50.0 mg/kg/injection, schedule: Q14DX004 (ip), vehicle: saline) of the same compound?
Answer: 173 % of control

Question: What about the T/C (dose: 50.0 mg/kg/injection, schedule: Q## X002 (ip), vehicle: saline) of the same compound?
Answer: 164 % of control

Question: And the T/C (dose: 65.5 mg/kg/injection, schedule: Q04DX003 (ip), vehicle: saline)?
Answer: 236 % of control

Question: And the T/C (dose: 67.0 mg/kg/injection, schedule: Q07DX004 (ip), vehicle: saline)?
Answer: 232 % of control

Question: What about the T/C (dose: 67.0 mg/kg/injection, schedule: Q09DX002 (ip), vehicle: saline) of the same compound?
Answer: 234 % of control

Question: And the T/C (dose: 75.0 mg/kg/injection, schedule: Q01DX001 (ip), vehicle: saline)?
Answer: 180 % of control and 226 % of control

Question: What about the T/C (dose: 75.0 mg/kg/injection, schedule: Q01DX001 (ip), vehicle: water) of the same compound?
Answer: 153 % of control

Question: And the T/C (dose: 75.0 mg/kg/injection, schedule: Q04DX003 (ip), vehicle: saline)?
Answer: 180 % of control

Question: And the T/C (dose: 75.0 mg/kg/injection, schedule: Q07DX003 (ip), vehicle: saline)?
Answer: 200 % of control and 210 % of control and 231 % of control

Question: What about the T/C (dose: 75.0 mg/kg/injection, schedule: Q07DX005 (ip), vehicle: saline) of the same compound?
Answer: 181 % of control

Question: What about the T/C (dose: 75.0 mg/kg/injection, schedule: Q12DX002 (ip), vehicle: saline) of the same compound?
Answer: 226 % of control

Question: What about the T/C (dose: 100.0 mg/kg/injection, schedule: Q01DX001 (ip), vehicle: saline with Tween-80) of the same compound?
Answer: 154 % of control

Question: And the T/C (dose: 100.0 mg/kg/injection, schedule: Q01DX009 (ip), vehicle: saline)?
Answer: 112 % of control

Question: What about the T/C (dose: 100.0 mg/kg/injection, schedule: Q07DX004 (ip), vehicle: saline) of the same compound?
Answer: 200 % of control

Question: What about the T/C (dose: 100.0 mg/kg/injection, schedule: Q07DX005 (ip), vehicle: saline) of the same compound?
Answer: 95 % of control

Question: And the T/C (dose: 100.0 mg/kg/injection, schedule: Q09DX002 (ip), vehicle: saline)?
Answer: 117 % of control and 228 % of control (2×)

Question: What about the T/C (dose: 100.0 mg/kg/injection, schedule: Q10DX004 (ip), vehicle: saline) of the same compound?
Answer: 175 % of control

Question: What about the T/C (dose: 100.0 mg/kg/injection, schedule: Q14DX003 (ip), vehicle: saline) of the same compound?
Answer: 235 % of control

Question: And the T/C (dose: 125.0 mg/kg/injection, schedule: Q07DX003 (ip), vehicle: saline)?
Answer: 105 % of control and 110 % of control

Question: What about the T/C (dose: 150.0 mg/kg/injection, schedule: Q01DX001 (ip), vehicle: saline with Tween-80) of the same compound?
Answer: 179 % of control

Question: What about the T/C (dose: 150.0 mg/kg/injection, schedule: Q01DX001 (ip), vehicle: water) of the same compound?
Answer: 171 % of control and 196 % of control

Question: And the T/C (dose: 150.0 mg/kg/injection, schedule: Q07DX005 (ip), vehicle: saline)?
Answer: 95 % of control

Question: What about the T/C (dose: 150.0 mg/kg/injection, schedule: Q10DX004 (ip), vehicle: saline) of the same compound?
Answer: 209 % of control

Question: And the T/C (dose: 200.0 mg/kg/injection, schedule: Q01DX009 (ip), vehicle: saline)?
Answer: 100 % of control

Question: What about the T/C (dose: 200.0 mg/kg/injection, schedule: Q09DX002 (ip), vehicle: saline) of the same compound?
Answer: 103 % of control

Question: And the T/C (dose: 200.0 mg/kg/injection, schedule: Q10DX002 (ip), vehicle: saline)?
Answer: 114 % of control

Question: And the T/C (dose: 300.0 mg/kg/injection, schedule: Q01DX001 (ip), vehicle: water)?
Answer: 171 % of control and 188 % of control

Question: What about the T/C (dose: 500.0 mg/kg/injection, schedule: Q01DX001 (ip), vehicle: saline) of the same compound?
Answer: 100 % of control

Question: Which results are given for O=C(Cc1ccc2cc3c(cc2c1)OCO3)NCCc1ccc2c(c1)OCO2?
Answer: T/C (dose: 100.0 mg/kg/injection, schedule: Q01DX001 (ip), vehicle: Klucel (hydroxypropylcellulose) (HPC)): 92 % of control; T/C (dose: 100.0 mg/kg/injection, schedule: Q04DX003 (ip), vehicle: Klucel (hydroxypropylcellulose) (HPC)): 100 % of control; T/C (dose: 200.0 mg/kg/injection, schedule: Q01DX001 (ip), vehicle: Klucel (hydroxypropylcellulose) (HPC)): 94 % of control; T/C (dose: 200.0 mg/kg/injection, schedule: Q04DX003 (ip), vehicle: Klucel (hydroxypropylcellulose) (HPC)): 96 % of control; T/C (dose: 400.0 mg/kg/injection, schedule: Q01DX001 (ip), vehicle: Klucel (hydroxypropylcellulose) (HPC)): 100 % of control; T/C (dose: 400.0 mg/kg/injection, schedule: Q04DX003 (ip), vehicle: Klucel (hydroxypropylcellulose) (HPC)): 92 % of control
